Experimental data taken from article PMC8881512 (Nature Communications, 2022).

Tests used:
[1] = test system: ER+ breast tumour organoids (BTO-02); experiment: 3D organoids drug response assay (CellTiter-Glo 3D); format: cell-based, human; conditions: 3D drug killing assay; 12 days after compound treatment; Fig. 6b
Procedure: Breast tumour organoids were dissociated into single cells using TrypLE Express and counted with automated cell counter. Subsequently, 1000 cells were mixed in 10 μl BME type 2, seeded onto 96-well plate in triplicate and overlaid with 100 μl BC organoid medium (BOM) after BME gelation. Three days after organoids sphere formation, medium was removed and replaced by 100 μl of complete medium containing VT02956 (0, 0.04, 0.2, 1, 5 μM) or vehicle (DMSO). The drug-containing medium was refreshed every 3 days for additional 3–4 times. At the end of the treatment, the effect of the drugs on the tumour organoids, in terms of the organoids cell growth, was assayed with CellTiter-Glo 3D (Promega) according to the manufacturer’s instructions and were normalised to vehicle controls (0.5% DMSO content). The IC50 values was calculated in GraphPad Prism 8.

HGK/MAP4K4 = target: T1, HGK/MAP4K4 (Homo sapiens, UniProt O95819); experiment: Kinome profiling; format: biochemical; conditions: VT02956 (5 nM), read-out: % enzymatic activity relative to DMSO controls
T1 construct: LATS1/LATS2 enzymes from Signalchem

JAK1 = target: T2, JAK1 (Homo sapiens, UniProt P23458); experiment: Kinome profiling; format: biochemical; conditions: VT02956 (5 nM)
T2 construct: LATS1/LATS2 enzymes from Signalchem
T2 sequence (P23458 whole entry): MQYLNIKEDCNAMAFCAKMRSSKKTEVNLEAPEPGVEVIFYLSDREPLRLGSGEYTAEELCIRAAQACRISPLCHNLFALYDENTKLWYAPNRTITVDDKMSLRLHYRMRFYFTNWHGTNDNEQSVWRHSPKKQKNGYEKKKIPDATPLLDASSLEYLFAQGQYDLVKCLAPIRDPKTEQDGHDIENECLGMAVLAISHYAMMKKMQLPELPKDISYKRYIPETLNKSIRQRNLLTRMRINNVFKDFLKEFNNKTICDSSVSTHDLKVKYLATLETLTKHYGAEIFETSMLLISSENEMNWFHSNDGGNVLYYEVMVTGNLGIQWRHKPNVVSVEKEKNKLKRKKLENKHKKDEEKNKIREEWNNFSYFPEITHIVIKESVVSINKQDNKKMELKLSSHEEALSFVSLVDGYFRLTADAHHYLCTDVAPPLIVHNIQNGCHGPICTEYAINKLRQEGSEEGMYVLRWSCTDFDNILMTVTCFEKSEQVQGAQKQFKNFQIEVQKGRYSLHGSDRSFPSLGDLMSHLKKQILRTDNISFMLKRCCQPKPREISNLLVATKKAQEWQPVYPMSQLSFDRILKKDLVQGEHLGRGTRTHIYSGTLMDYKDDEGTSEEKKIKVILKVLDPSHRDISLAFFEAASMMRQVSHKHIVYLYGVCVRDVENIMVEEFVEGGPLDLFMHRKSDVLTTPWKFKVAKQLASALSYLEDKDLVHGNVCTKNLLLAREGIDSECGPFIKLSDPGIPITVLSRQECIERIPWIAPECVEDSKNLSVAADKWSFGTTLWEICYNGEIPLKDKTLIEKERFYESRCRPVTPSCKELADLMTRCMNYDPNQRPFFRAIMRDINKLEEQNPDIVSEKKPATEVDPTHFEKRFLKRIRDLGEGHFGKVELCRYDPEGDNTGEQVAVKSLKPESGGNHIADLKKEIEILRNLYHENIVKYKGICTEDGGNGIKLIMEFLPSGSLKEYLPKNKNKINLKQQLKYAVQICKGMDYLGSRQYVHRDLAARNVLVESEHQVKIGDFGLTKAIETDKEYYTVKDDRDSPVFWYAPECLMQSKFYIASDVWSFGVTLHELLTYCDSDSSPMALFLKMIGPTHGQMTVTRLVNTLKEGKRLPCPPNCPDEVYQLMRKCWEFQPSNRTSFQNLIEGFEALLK

T1 sequence (O95819 whole entry): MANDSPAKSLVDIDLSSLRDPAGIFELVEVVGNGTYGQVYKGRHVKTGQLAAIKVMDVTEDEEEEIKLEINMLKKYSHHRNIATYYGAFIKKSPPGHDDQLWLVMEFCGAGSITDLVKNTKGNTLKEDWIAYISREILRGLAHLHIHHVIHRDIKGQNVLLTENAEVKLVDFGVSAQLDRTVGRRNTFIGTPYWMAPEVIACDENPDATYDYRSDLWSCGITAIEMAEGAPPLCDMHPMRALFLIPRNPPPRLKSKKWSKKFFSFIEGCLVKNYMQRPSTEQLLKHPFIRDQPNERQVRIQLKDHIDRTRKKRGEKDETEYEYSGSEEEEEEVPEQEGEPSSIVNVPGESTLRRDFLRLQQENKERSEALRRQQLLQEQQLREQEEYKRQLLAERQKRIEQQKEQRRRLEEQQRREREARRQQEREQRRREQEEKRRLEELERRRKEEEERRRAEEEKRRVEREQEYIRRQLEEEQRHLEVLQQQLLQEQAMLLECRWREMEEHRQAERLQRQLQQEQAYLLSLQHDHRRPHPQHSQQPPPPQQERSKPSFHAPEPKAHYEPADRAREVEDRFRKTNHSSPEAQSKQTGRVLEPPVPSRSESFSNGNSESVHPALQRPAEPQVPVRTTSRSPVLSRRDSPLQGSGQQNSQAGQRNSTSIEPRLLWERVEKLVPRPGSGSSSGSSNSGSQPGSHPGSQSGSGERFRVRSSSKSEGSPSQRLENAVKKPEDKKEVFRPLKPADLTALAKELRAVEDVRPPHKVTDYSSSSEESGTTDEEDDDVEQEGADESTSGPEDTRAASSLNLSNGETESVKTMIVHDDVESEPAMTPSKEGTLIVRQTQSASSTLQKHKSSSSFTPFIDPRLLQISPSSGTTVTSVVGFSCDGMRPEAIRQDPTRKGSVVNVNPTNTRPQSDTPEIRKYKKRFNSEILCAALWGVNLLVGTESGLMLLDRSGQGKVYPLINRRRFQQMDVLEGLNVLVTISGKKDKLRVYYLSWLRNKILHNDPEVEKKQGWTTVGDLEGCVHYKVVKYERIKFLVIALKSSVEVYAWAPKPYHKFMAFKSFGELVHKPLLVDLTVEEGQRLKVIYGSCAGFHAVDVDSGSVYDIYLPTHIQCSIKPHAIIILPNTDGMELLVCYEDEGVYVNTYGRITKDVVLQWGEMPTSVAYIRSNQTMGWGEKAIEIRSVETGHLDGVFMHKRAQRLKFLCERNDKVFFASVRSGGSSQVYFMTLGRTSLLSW

NCC1CCN(c2nc(-c3ccncc3)nc3c(C#CCO)cccc23)CC1 [VT02956]
growth of ER+ breast tumour organoids (BTOs) [1]: sensitive | remaining activity at 0.005 µM (HGK/MAP4K4): 85% | % enzymatic activity relative to DMSO controls (JAK1): 82%
